Results as given in patent US20230285570A1, “THERAPEUTICALLY USEFUL CURE-PRO MOLECULES FOR E3 LIGASE MEDIATED DEGRADATION OF PROTEINS, AND METHODS OF MAKING AND USING THEM” (CORNELL UNIVERSITY, priority 2020, published 2023).
“Also recorded” adds a separate entry of the source.

Columns and labels:
Type in all cases: cell-based
c-MYC = c-MYC (Homo sapiens, UniProt P01106); assay: Summary of C-MYC degradation by CURE-PRO pairs, estimated from Western Blot or WES; set-up: endogenous in cells; host or cells: HT29; conditions: for Degradation of C-MYC, combination with CRBN ligand 8066: Table 7, aryl-boronic acid MYC ligand + 8066; for Degradation of C-MYC, combination with MDM2 ligand 8310: Table 11, aromatic 1,2-diol MYC ligand + 8310; for Degradation of C-MYC, combination with CRBN ligand 8046: Table 7, aryl-boronic acid MYC ligand + 8046; for Degradation of C-MYC, combination with CRBN ligand 8048: Table 10, aromatic 1,2-diol MYC ligand + 8048; for Degradation of C-MYC, combination with CRBN ligand 8049: Table 10, aromatic 1,2-diol MYC ligand + 8049; for Degradation of C-MYC, combination with VHL ligand 8298: Table 12, aromatic 1,2-diol MYC ligand + 8298
Procedure: (§1) Namalwa, Ramosm HeLa, MCF7, or HT29 HCT116 cells (2.5-3×10^6) were treated for 24 hours with the indicated compounds solubilized in DMSO. The cells were washed in ice-cold PBS and were then lysed in RIPA lysis buffer (150 mM NaCl, 5 mM EDTA, 1% NP-40, 0.5% sodium deoxycholate, 0.1% SDS, 50 mM Tris, pH 8.0.) with Roche protease inhibitor complete cocktail and phosphatase inhibitors (10 mM sodium fluoride, 10 mM sodium pyrophosphate, 1 mM sodium orthovanadate and 20 mM β-glycerophosphate). The total protein concentrations were determined by Bradford Protein Assay (Pierce) and 10-20 μg of protein was loaded onto 4-15% Tris-Glycine gradient gels (Biorad). After standard gel electrophoresis, the separated proteins were transferred to PVDF membrane by wet transfer. The immunoblots were then blocked for 1 hour in 5% skim milk in TBST or 5% BSA in TBST, according to manufacturer's instructions, before an overnight incubation at 4° C. with indicated antibodies and membranes. Membranes were then incubated with the appropriate horseradish peroxidase-conjugated secondary antibodies (1:5,000 dilution) for 1 h at room temperature and the bands were visualized using the Clarity Max Western ECL Substrate (Biorad) and the ChemiDoc Imaging System (Biorad). Signal was detected with ECL Western Blotting Substrate (Pierce) and X-ray film processed with a Konica SRX-101 X-ray film processor or captured by Bio-Rad's Chemidoc Imaging system.
(§2) WES Simple analysis was performed on WES system (ProteinSimple-Biotechne) according to the manufacturer's instructions. Total protein concentrations of cell lysates were determined by the Pierce BCA kit (Thermo Fisher). 3 μL of 0.3 μg/μL of the protein lysate was loaded onto a 12- to 230-kDa WES assay plate (ProteinSimple) where 300 nL sample was withdrawn through a capillary, subjected to electrophoretic separation of proteins by size, and followed by the simultaneous, HRP-based detection of proteins using the Anti-Rabbit Detection Module (Proteinsimple: #DM-001). The electropherograms were checked then the automatic peak detection was manually corrected if it was required.
(§3) A black check mark indicates efficacy of 30% to 70% or higher protein degradation.

BRD4 [1] = target: T1, BRD4 (Homo sapiens, UniProt O60885); assay: Summary of BRD4 degradation by CURE-PRO pairs, estimated from Western Blot or WES; set-up: endogenous in cells; conditions: for Degradation of BRD4, combination with CRBN ligand 8047: Table 1, aryl-boronic acid BRD4 ligand + 8047
Procedure: as §1, §2, §3

BRD4 [2] = target: T1, BRD4; assay: CURE-PRO-mediated BRD4 degradation in HeLa cells, Western blot; set-up: endogenous in cells; host or cells: HeLa; conditions: 24 h
Procedure: All cell lines were purchased from ATCC or DSMZ and grown at 37° C. with 5% CO2. Human HeLa cells were cultured in complete growth medium (Dulbecco's modified Eagle's medium (DMEM) supplemented with 10% FBS); MCF7 cells were cultured in complete growth medium (Dulbecco's modified Eagle's medium (DMEM) supplemented with 10% FBS and 0.01 mg/ml human recombinant insulin (Sigma Aldrich); Namalwa and Ramos cells were cultured in complete growth medium (RPMI 1640 medium supplemented with 10% FBS); HCT116 and HT29 cells were cultured in complete growth medium (McCoy's 5a Medium supplemented with 10% FBS). For cellular degradation of BRD4 studies cells were seeded in a 12-well plate at 70-80% confluency, allowed to attach overnight, and incubated with the indicated compounds for the indicated time. When indicated, a 15-minute pretreatment with 10 μM pomalidomide, 10 μM VHL298, 10 μM Nutlin3a, 1 μM MG-132 or 1 μM Carfilzomib was performed before the addition of CURE-PROs. For washout studies, after CURE-PRO treatment, media was aspirated and incubated with complete medium for the indicated time before lysis.
as §1
HeLa cells (2.5×10^6) were treated for 24 hours with the sample compounds solubilized in DMSO. Compounds were added at 1-10 μM each. Standardized protein samples were electrophoresed and imaged as described in the immunoblotting description above. FIGS. 6-18 depicts the CURE-PRO-mediated BRD4 degradation for BRD monomers (JQ1 derivatives comprising of catechol linkers), and CRBN ligands, 8048 and 8049 (pomalidomide derivatives comprising boronic acid linkers) combined in a 1:1 ratio.
HeLa cells (2.5×10^6) were treated for 24 hours with the compounds solubilized in DMSO. The compounds were added at 10 μM each. Standardized protein samples were electrophoresed and imaged as described in the immunoblotting section above. FIGS. 23-27 depicts the CURE-PRO-mediated BRD4 degradation for BRD monomers (JQ1 derivatives comprising of boronic acid linkers), and CRBN ligands, 8046, 8047 and 8066 (pomalidomide derivatives comprising diol linkers) combined in a 1:1 ratio.
HeLa cells (2.5×10^6) were treated for 24 hours with the compounds solubilized in DMSO. Compounds were added at 10 μM and 100 μM each. Standardized protein samples were electrophoresed and imaged as described in the immunoblotting section above.
HeLa cells (2.5×10^6) were treated for 24 hours with the compounds solubilized in DMSO. Compounds were added at 1 nM-1 μM each. […]

c-MYC, sequence (P01106 whole entry): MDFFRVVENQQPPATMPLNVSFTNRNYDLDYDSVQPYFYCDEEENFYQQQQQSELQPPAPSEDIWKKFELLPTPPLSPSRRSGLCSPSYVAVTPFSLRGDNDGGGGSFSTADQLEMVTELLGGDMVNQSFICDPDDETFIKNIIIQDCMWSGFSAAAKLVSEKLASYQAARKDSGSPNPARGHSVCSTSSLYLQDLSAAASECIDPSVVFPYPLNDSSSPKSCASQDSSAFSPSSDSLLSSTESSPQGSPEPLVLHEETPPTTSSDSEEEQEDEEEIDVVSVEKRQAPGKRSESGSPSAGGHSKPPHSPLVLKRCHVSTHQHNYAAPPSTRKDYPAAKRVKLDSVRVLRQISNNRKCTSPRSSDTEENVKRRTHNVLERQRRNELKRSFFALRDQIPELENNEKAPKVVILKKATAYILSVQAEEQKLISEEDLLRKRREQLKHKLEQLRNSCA

O=C(NCc1ccc(B(O)O)cc1)c1cccc(Nc2ccc([N+](=O)[O-])c3nonc23)c1 [MYC- E09]
Degradation of C-MYC, combination with CRBN ligand 8066 (c-MYC): √ (A black check mark indicates efficacy of 30% to 70% or higher protein degradation)

O=C(NCCNC(=O)c1ccccc1Nc1ccc([N+](=O)[O-])c2nonc12)c1ccc(O)c(O)c1 [MYC- N21]
Degradation of C-MYC, combination with MDM2 ligand 8310 (c-MYC): √ (A black check mark indicates efficacy of 30% to 70% or higher protein degradation)

CCc1ccc(/C=C2\SC(=O)N(CCCc3cccc(B(O)O)c3)C2=O)cc1 [MYC- E02]
Degradation of C-MYC, combination with CRBN ligand 8046 (c-MYC): √ (A black check mark indicates efficacy of 30% to 70% or higher protein degradation)
Degradation of C-MYC, combination with CRBN ligand 8066 (c-MYC): √ (A black check mark indicates efficacy of 30% to 70% or higher protein degradation)

O=C(NCc1ccc(Cl)c(B(O)O)c1)c1ccccc1Nc1ccc([N+](=O)[O-])c2nonc12 [MYC-E18]
Degradation of C-MYC, combination with CRBN ligand 8046 (c-MYC): √ (A black check mark indicates efficacy of 30% to 70% or higher protein degradation)

O=C(NCCN1C(=O)C/C(=C\c2ccc(F)cc2)C1=O)[C@H]1C[C@@H]2C[C@H]1[C@@H](O)[C@H]2O [MYC-N30]
Degradation of C-MYC, combination with CRBN ligand 8048 (c-MYC): √ (A black check mark indicates efficacy of 30% to 70% or higher protein degradation)
Degradation of C-MYC, combination with CRBN ligand 8049 (c-MYC): √ (A black check mark indicates efficacy of 30% to 70% or higher protein degradation)

O=C(NCc1ccc(O)c(O)c1)c1ccccc1Nc1ccc([N+](=O)[O-])c2nonc12 [MYC-N15]
Degradation of C-MYC, combination with CRBN ligand 8048 (c-MYC): √ (A black check mark indicates efficacy of 30% to 70% or higher protein degradation)
Degradation of C-MYC, combination with CRBN ligand 8049 (c-MYC): √ (A black check mark indicates efficacy of 30% to 70% or higher protein degradation)

CCc1ccc(/C=C2\SC(=O)N(CCNC(=O)c3cccc(O)c3O)C2=O)cc1 [MYC-N08]
Degradation of C-MYC, combination with VHL ligand 8297 (c-MYC; Table 12, aromatic 1,2-diol MYC ligand + 8297): √ (A black check mark indicates efficacy of 30% to 70% or higher protein degradation)
Degradation of C-MYC, combination with VHL ligand 8298 (c-MYC): √ (A black check mark indicates efficacy of 30% to 70% or higher protein degradation)

O=C(NCCNC(=O)c1cccc(O)c1O)c1ccccc1Nc1ccc([N+](=O)[O-])c2nonc12 [MYC- N22]
Degradation of C-MYC, combination with MDM2 ligand 8310 (c-MYC): √ (A black check mark indicates efficacy of 30% to 70% or higher protein degradation)
Degradation of C-MYC, combination with MDM2 ligand 8312 (c-MYC; Table 11, aromatic 1,2-diol MYC ligand + 8312): √ (A black check mark indicates efficacy of 30% to 70% or higher protein degradation)

COc1ccc2c(c1)C(c1ccc(Cl)cc1)=N[C@@H](CC(=O)NCc1cccc(B(O)O)c1)c1nnc(C)n1-2 [BRD-E10]
Degradation of BRD4, combination with CRBN ligand 8046 (BRD4 [1]; Table 1, aryl-boronic acid BRD4 ligand + 8046): √ (A black check mark indicates efficacy of 30% to 70% or higher protein degradation)
Degradation of BRD4, combination with CRBN ligand 8047 (BRD4 [1]): √ (A black check mark indicates efficacy of 30% to 70% or higher protein degradation)
Degradation of BRD4, combination with VHL ligand 8304 (BRD4 [1]; Table 3, aryl-boronic acid BRD4 ligand + 8304): √ (A black check mark indicates efficacy of 30% to 70% or higher protein degradation)
BRD4 degradation (BRD4 [2]; 1:1 with CRBN ligand 8046, HeLa, 10 μM and 100 μM each): only demonstrated BRD4 degradation at 100 μM
BRD4 degradation (BRD4 [2]; 1:1 with CRBN ligand 8047, HeLa, 10 μM and 100 μM each): complete degradation at 10 μM

O=[N+]([O-])c1ccc(Nc2cccc(O)c2O)c2nonc12 [MYC-N11]
Degradation of C-MYC, combination with CRBN ligand 8048 (c-MYC): √ (A black check mark indicates efficacy of 30% to 70% or higher protein degradation)

CCNC(=O)C[C@@H]1N=C(c2ccc(Cl)cc2)c2cc(OCCOCCOCCNC(=O)c3cccc(B(O)O)c3)ccc2-n2c(C)nnc21 [BRD-E42]
Degradation of BRD4, combination with CRBN ligand 8047 (BRD4 [1]): √ (A black check mark indicates efficacy of 30% to 70% or higher protein degradation)
BRD4 degradation (BRD4 [2]; co-treated 1:1 with CRBN ligand 8047, HeLa, 10 μM each): causes degradation of BRD4

COc1ccc2c(c1)C(c1ccc(Cl)cc1)=N[C@@H](CC(=O)NCCNC(=O)c1ccc(O)c(O)c1)c1nnc(C)n1-2 [BRD-N1]
Degradation of BRD4, combination with CRBN ligand 8048 (BRD4 [1]; Table 4, aromatic 1,2-diol BRD4 ligand + 8048): √ (A black check mark indicates efficacy of 30% to 70% or higher protein degradation)
BRD4 degradation (BRD4 [2]; BRD4 monomer alone, HeLa, 1-10 μM): there is no degradation of BRD4
BRD4 degradation (BRD4 [2]; co-treated 1:1 with CRBN ligand 8048, HeLa, 1-10 μM each): causes degradation of BRD4; also recorded: Degradation is noted

O=C(NCc1cccc(O)c1O)c1ccc(Nc2ccc([N+](=O)[O-])c3nonc23)cc1 [MYC- N18]
Degradation of C-MYC, combination with MDM2 ligand 8310 (c-MYC): √ (A black check mark indicates efficacy of 30% to 70% or higher protein degradation)

O=C(NCc1ccc(O)c(O)c1)c1ccc(Nc2ccc([N+](=O)[O-])c3nonc23)cc1 [MYC-N17]
Degradation of C-MYC, combination with VHL ligand 8298 (c-MYC): √ (A black check mark indicates efficacy of 30% to 70% or higher protein degradation)
